Experiments:
human neutrophils = test: Binding of PGG β-glucan after serum pre-treatment, neutrophils; assay type: cell-based; details: 200 μg/mL; 10% HI serum; two hours at 37° C.
Method: (§1) PGG β-glucan at concentration 60-80 mg/mL was incubated with human serum at 1:10 volume ratio for 30 minutes in a 37° C. water bath. The serum-pretreated PGG β-glucan was added to neutrophils at 200 μg/mL or to PBMC at 100 μg/mL resuspended in RPM1 containing either 10% regular autologous serum or 10% HI serum at indicated time and temperature of incubation. Binding was then determined as described previously.
(§2) To determine the role of complement proteins in binding, experiments were performed as described above except for using serum containing 10% HI, compstatin-treated or methylamine (MA)-treated, EGTA- or EGTA+MgCl2 (MgEGTA)-treated, or factor D-blocked serum. Heat-inactivated (HI) serum was prepared by incubating serum in a 56° C. water bath for 30 minutes. […] Treatment of serum with methylamine (MA) was done by incubating serum with 0.67% of methylamine for 2.5 hours at 37° C., followed by three washes with DPBS using Amicon centrifugal filter unit with a 3K MW cut-off (Millipore, Billerica, Mass.). DPBS-treated serum was prepared in the same manner and used as control serum for MA-treated serum. For blocking of factor D in the serum, 166-32 at concentration 20 μg/mL was incubated with serum on ice for 30 minutes, and then used for binding studies. […]

human monocytes = test: Binding of PGG β-glucan after serum pre-treatment, monocytes; assay type: cell-based; details: 100 μg/mL; 10% HI serum; two hours at 37° C.
Method: as §1, §2

iC3b = target: T1, iC3b (Homo sapiens, UniProt P01024); test: Immunoprecipitation of PGG β-glucan with BfD IV and detection of pulled-down iC3b; assay type: binding
T1 construct: from tissue
T1 sequence (P01024 749-1303 limits assumed): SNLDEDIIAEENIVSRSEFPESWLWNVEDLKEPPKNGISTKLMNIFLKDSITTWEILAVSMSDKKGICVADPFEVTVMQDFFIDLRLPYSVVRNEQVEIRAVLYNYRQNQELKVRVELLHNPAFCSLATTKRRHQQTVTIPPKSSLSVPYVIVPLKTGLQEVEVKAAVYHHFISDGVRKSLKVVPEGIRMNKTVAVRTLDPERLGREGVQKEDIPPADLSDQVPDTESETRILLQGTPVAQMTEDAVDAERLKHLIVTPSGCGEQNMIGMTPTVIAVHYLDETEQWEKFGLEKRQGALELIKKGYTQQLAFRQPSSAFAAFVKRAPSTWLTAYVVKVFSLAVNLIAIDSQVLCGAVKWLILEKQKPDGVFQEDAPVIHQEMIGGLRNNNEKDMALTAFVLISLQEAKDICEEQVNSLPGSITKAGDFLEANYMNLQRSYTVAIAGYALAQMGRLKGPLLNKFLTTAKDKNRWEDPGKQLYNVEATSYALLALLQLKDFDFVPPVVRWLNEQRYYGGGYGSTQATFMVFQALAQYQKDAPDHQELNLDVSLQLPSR
T1 sequence (P01024 23-667 partner limits assumed): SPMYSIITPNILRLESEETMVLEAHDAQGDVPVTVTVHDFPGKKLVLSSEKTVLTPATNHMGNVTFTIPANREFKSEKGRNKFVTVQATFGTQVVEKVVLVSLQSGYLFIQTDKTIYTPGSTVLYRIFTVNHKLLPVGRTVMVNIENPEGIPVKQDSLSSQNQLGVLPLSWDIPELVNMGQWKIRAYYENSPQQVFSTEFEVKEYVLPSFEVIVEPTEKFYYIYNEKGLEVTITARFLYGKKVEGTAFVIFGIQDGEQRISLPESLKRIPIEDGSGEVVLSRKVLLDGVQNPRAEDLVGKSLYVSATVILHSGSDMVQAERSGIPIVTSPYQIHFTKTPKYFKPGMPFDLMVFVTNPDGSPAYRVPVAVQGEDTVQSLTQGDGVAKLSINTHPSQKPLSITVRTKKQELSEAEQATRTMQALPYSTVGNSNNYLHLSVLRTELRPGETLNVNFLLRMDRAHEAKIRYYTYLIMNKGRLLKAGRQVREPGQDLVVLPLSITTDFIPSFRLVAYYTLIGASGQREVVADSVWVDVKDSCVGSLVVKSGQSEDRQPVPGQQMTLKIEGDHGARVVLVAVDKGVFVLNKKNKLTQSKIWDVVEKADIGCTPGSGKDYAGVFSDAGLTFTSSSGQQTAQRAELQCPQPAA
T1 sequence (P01024 1321-1663 partner limits assumed): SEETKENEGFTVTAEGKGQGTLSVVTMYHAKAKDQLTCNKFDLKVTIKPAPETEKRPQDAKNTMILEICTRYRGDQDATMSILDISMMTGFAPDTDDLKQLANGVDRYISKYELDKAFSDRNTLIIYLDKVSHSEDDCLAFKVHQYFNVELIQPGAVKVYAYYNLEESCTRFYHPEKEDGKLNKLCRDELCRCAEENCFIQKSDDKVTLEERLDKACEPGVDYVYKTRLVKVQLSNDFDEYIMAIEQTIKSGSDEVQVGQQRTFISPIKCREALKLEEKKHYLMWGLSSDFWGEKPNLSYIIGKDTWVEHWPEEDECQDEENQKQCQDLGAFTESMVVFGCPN
Method: PGG β-glucan or dextran at concentration 60-80 mg/mL was incubated with regular or HI serum at 1:10 volume ratio for 30 minutes in a 37° C. water bath. BfD IV Ab was added to the serum/β-glucan mixture and incubated at room temperature for additional 30 minutes. Magnetic beads conjugated with rat anti-mouse IgM (DYNABEADS, Invitrogen, Camarillo, Calif.) were washed three times with DPBS and incubated with serum-PGG β-glucan-BfD IV mixture for another 30 minutes at room temperature. The beads were separated magnetically and iC3b pulled-down along with immunoprecipitated PGG was probed using FITC-conjugated complement C3 Ab by flow cytometer.

- iC3b pulled down with BfD IV immunoprecipitate (iC3b; glucan incubated with HI serum): no iC3b was detected
- iC3b pulled down with BfD IV immunoprecipitate (iC3b; glucan incubated with regular serum): iC3b protein was pulled-down
Substance: β(1,6)-[poly-1,3)-D-glucopyranosyl]-poly-β(1,3)-D-glucopyranose [PGG β-glucan]
- Extent of rescued binding to cells in HI serum (MFI, percentage of BfD IV positive cells) (human neutrophils): minimal
- Extent of rescued binding to cells in HI serum (MFI, percentage of BfD IV positive cells) (human monocytes): minimal

Source: patent publication US10092657B2, “Opsonized β-glucan preparations and methods” (Biothera, Inc., priority 2011, dated 2018)
